This assay deals with T1, human EHMT2 913-1193 (Homo sapiens, UniProt Q96KQ7).
T1 construct: recombinant purified human EHMT2 913-1193, Viva; purchased Viva
T1 sequence (Q96KQ7 913-1193): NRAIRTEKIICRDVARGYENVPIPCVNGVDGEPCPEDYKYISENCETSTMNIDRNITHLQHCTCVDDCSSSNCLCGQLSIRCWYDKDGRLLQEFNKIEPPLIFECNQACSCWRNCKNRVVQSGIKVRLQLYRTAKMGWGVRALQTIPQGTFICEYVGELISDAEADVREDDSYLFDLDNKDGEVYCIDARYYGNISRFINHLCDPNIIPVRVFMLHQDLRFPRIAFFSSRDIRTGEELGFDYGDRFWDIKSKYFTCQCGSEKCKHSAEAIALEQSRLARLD
Nature of the assay: EHMT2 enzyme assay on histone peptide substrate. The class given is biochemical. As to conditions: Table 3; histone H3 1-15 peptide, balanced conditions; read-out: EHMT2 PEP (IC50 μM). From the text:
Recombinant purified human EHMT2 913-1193 ([…]) synthesized by Viva was used for all experiments. Biotinylated histone peptides were synthesized by Biopeptide and HPLC-purified to >95% purity. Streptavidin Flashplates and seals were purchased from PerkinElmer and 384 Well V-bottom Polypropylene Plates were from Greiner. ^3H-labeled S-adenosylmethionine (^3H-SAM) was obtained from American Radiolabeled Chemicals with a specific activity of 80 Ci/mmol. Unlabeled SAM and S-adenosylhomocysteine (SAH) were obtained from American Radiolabeled Chemicals and Sigma-Aldrich respectively. Flashplates were washed in a Biotek ELx-405 with 0.1% Tween. 384-well Flashplates and 96-well filter binding plates were read on a TopCount microplate reader (PerkinElmer). Compound serial dilutions were performed on a Freedom EVO (Tecan) and spotted into assay plates using a Thermo Scientific Matrix PlateMate (Thermo Scientific). Reagent cocktails were added by Multidrop Combi (Thermo Scientific).
10-point curves of test compounds were made on a Freedom EVO (Tecan) using serial 3-fold dilutions in DMSO, beginning at 2.5 mM (final top concentration of compound was […] and the DMSO was 2%). A 1 μL aliquot of the inhibitor dilution series was spotted in a polypropylene 384-well V-bottom plate (Greiner) using a Thermo Scientific Matrix PlateMate (Thermo Scientific). The 100% inhibition control consisted of 1 mM final concentration of the product inhibitor S-adenosylhomocysteine (SAH, Sigma-Aldrich). Compounds were incubated for 30 minutes with 40 μL per well of 0.031 nM EHMT2 (recombinant purified human EHMT2 913-1193, Viva) in 1× assay buffer (20 mM Bicine [pH 7.5], 0.002% Tween 20, 0.005% Bovine Skin Gelatin and 1 mM TCEP). 10 μL per well of substrate mix comprising assay buffer, ^3H-SAM (^3H-labeled S-adenosylmethionine, American Radiolabeled Chemicals, specific activity of 80 Ci/mmol), unlabeled SAM (American Radiolabeled Chemicals), and peptide representing histone H3 residues 1-15 containing C-terminal biotin (appended to a C-terminal amide-capped lysine, synthesized by Biopeptide and HPLC-purified to greater than 95% purity) were added to initiate the reaction (both substrates were present in the final reaction mixture at their respective Km values, an assay format referred to as “balanced conditions”). Reactions were incubated for 60 minutes at room temperature and quenched with 10 μL per well of 400 μM unlabeled SAM, then transferred to a 384-well streptavidin Flashplate (PerkinElmer) and washed in a Biotek ELx-405 well washer with 0.1% Tween after 60 minutes. 384-well Flashplates were read on a TopCount microplate reader (PerkinElmer).

Where only a bound is given, the exact number is not on record here.

Broadly, the IC50 is the midpoint of a concentration-inhibition curve. On to `CNc1cc(C)nc(Nc2ccc(Br)c(CNCCN3CCCC3)c2)n1` [Compound 1, 2-N-[4-bromo-3-([[2-(pyrrolidin-1-yl)ethyl]amino]methyl)phenyl]-4-N,6-dimethylpyrimidine-2,4-diamine], for which the IC50 was in the range of 0.1 to 1 µM.

As to `CNc1cc(C)nc(Nc2ccc(Cl)c(C(=O)NCC3COC3)c2)n1` [Compound 2, 2-chloro-5-[[4-methyl-6-(methylamino)pyrimidin-2-yl]amino]-N-(oxetan-3-ylmethyl)benzamide], the IC50 was over 10 µM.

As for `CNc1cc(C)nc(Nc2ccc(Cl)c(C(=O)NCC3CCC3)c2)n1` [Compound 3], the IC50 fell in the range of 1 to 10 µM.

Turning to `CNc1cc(C)nc(Nc2ccc(Cl)c(C(=O)NCC3CC3)c2)n1` [Compound 4], the IC50 is over 10 µM.

For `CNc1cc(C)nc(Nc2ccc(Cl)c(C(=O)Nc3cccnn3)c2)n1` [Compound 5], the IC50 was over 10 µM.

Turning to `CNc1cc(C)nc(Nc2ccc(Cl)c(C(=O)Nc3ncco3)c2)n1` [Compound 6], the IC50 lay in the range of 1 to 10 µM.

In the case of `CNc1cc(C)nc(Nc2ccc(Cl)c(C(=O)NCCN3CCCC3)c2)n1` [Compound 7], the IC50 lay in the range of 0.1 to 1 µM.

Turning to `CNc1cc(C)nc(Nc2ccc(Cl)c(C(=O)NC3CCOCC3)c2)n1` [Compound 8], the IC50 was over 10 µM.

Take `CCCCNC(=O)c1cc(Nc2nc(C)cc(NC)n2)ccc1Cl` [Compound 9]: the half-inhibitory concentration (IC50) lay within 1 to 10 µM.

With `CNc1cc(C)nc(Nc2ccc(Cl)c(C(=O)Nc3ccccc3)c2)n1` [Compound 10], the IC50 was over 10 µM.

In the case of `CNc1cc(C)nc(Nc2ccc(C3CC3)c(CNCCN3CCCC3)c2)n1` [Compound 11, 2-N-[4-cyclopropyl-3-([[2-(pyrrolidin-1-yl)ethyl]amino]methyl)phenyl]-4-N,6-dimethylpyrimidine-2,4-diamine], the IC50 fell in the range of 0.1 to 1 µM.

Take `CNc1cc(C)nc(Nc2ccc(Cl)c(C(=O)Nc3cscn3)c2)n1` [Compound 13]: the IC50 lay in the range of 1 to 10 µM.

On to `CNc1cc(C)nc(Nc2ccc(Cl)c(C(=O)Nc3cocn3)c2)n1` [Compound 14, 2-chloro-5-[[4-methyl-6-(methylamino)pyrimidin-2-yl]amino]-N-(1,3-oxazol-4-yl)benzamide], for which the IC50 is over 10 µM.

For the molecule `CNc1cc(C)nc(Nc2ccc(Cl)c(C(=O)Nc3cn(C)cn3)c2)n1` [Compound 15], the IC50 is over 10 µM.

Consider `CNc1cc(C)nc(Nc2ccc(OC)c(C#CCN3CCNCC3)c2)n1` [Compound 28, 2-N-[4-methoxy-3-[3-(piperazin-1-yl)prop-1-yn-1-yl]phenyl]-4-N,6-dimethylpyrimidine-2,4-diamine], for which the IC50 lay in the range of 0.1 to 1 µM.

With `CNc1cc(C)nc(Nc2ccc(C)c(C(=O)Nc3cc(C#N)ccn3)c2)n1` [Compound 30], the IC50 was over 10 µM.

Consider `CNc1cc(C)nc(Nc2ccc(OC)c(CNCCN3CCC[C@H]3C)c2)n1` [Compound 31], for which the IC50 fell in the range of 0.1 to 1 µM.

`CNc1cc(C)nc(Nc2ccc(OC)c(CNCCN3CCC[C@@H]3C)c2)n1` [Compound 32]: the IC50 was over 10 µM.

For `CNc1cc(C)nc(Nc2ccc(C)c(C(=O)Nc3ncn(C)n3)c2)n1` [Compound 33], the IC50 is over 10 µM.

`CNc1cc(C)nc(Nc2ccc(OC)c(CNCCN3CC(C)C3)c2)n1` [Compound 35]: the IC50 is over 10 µM.

As to `CNc1cc(C)nc(Nc2ccc(C)c(C(=O)Nc3cn(C4CC4)cn3)c2)n1` [Compound 36], the IC50 is over 10 µM.

With `CNc1cc(C)nc(Nc2ccc(C)c(C(=O)Nc3c[nH]cn3)c2)n1` [Compound 37], the IC50 lay within 1 to 10 µM.

For the molecule `CNc1cc(C)nc(Nc2ccc(OC)c(CNCCN3CC[C@@H](C)C3)c2)n1` [Compound 38], the IC50 is 1 to 10 µM.

As for `CNc1cc(C)nc(Nc2ccc(OC)c(CNCCN3CC[C@H](C)C3)c2)n1` [Compound 39], the half-maximal inhibitory concentration (IC50) was 0.1 to 1 µM.

For `CNc1cc(C)nc(Nc2ccc(OC)c(OC[C@H](O)CN3CCCCC3)c2)n1` [Compound 40], the half-inhibitory concentration (IC50) is over 10 µM.

For the molecule `CNc1cc(C)nc(Nc2ccc(OC)c(OC[C@H](O)CN3CC4(CC4)C3)c2)n1` [Compound 41], the IC50 was over 10 µM.

The values are drawn from patent US20200317642A1, “AMINE-SUBSTITUTED HETEROCYCLIC COMPOUNDS AS EHMT2 INHIBITORS AND DERIVATIVES THEREOF” (Epizyme, Inc., priority 2017, published 2020).
